These results are taken from ChEMBL document CHEMBL3244018, “Synthesis and some pharmacological properties (4-beta-(2-thienyl)-L-alanine)oxytocin” (J Med Chem, 1978).

Active and inactive are the calls of the source. The rule behind the calls is not given here. Positions of bridges follow the written chain, without caps; N, C: chain ends. Non-standard residues stand in square brackets, D forms with d. Residues, ends and D or L forms follow the SMILES beside them. 2Thi = N[C@@H](Cc1cccs1)C(=O)O

For assay [1], the target named is T1, Oxytocin receptor (Rattus norvegicus) (UniProt P70536).
T1 sequence (whole entry): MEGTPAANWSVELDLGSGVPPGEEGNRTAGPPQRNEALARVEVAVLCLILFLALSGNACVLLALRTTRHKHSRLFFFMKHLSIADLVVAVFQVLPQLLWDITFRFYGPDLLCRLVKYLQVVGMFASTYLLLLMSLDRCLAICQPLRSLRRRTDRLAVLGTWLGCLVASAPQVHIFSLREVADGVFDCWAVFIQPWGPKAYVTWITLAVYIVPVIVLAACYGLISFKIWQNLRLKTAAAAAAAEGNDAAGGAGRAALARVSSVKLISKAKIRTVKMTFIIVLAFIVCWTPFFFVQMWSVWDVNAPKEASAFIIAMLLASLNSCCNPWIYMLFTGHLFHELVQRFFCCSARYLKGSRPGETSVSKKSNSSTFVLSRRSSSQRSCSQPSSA
As to the kind of experiment: Intrinsic activity at rat oxytocin receptor relative to oxytocin.

Assay [2] is filed under the species Rattus norvegicus. The experiment in a line: Antidiuretic activity in rat at 0.1 mg. In kind it is functional, Urine.
Assay [3] is filed under the species Rattus norvegicus. The experiment in a line: Uterotonic potency in rat. In kind it is functional.
Assay [4] is described as follows: Inhibition of oxytocin receptor in conscious chicken assessed as inhibition of oxytocin-induced vasodepressor response. Details: species or system Gallus gallus.
The species named for assay [5] is Rattus norvegicus. As to the kind of experiment: Effect on pressor response in rat at 0.1 mg. In kind it is functional.
For assay [6], the target named is T1, Oxytocin receptor (Rattus norvegicus). As to the kind of experiment: Binding affinity to rat oxytocin receptor.

In assay [1], `CC[C@H](C)[C@@H]1NC(=O)[C@H](Cc2ccc(O)cc2)NC(=O)[C@@H](N)CSSC[C@@H](C(=O)N2CCC[C@H]2C(=O)N[C@@H](CC(C)C)C(=O)NCC(N)=O)NC(=O)[C@H](CC(N)=O)NC(=O)[C@H](Cc2cccs2)NC1=O` (H-CYI[2Thi]NCPLG-NH2; disulfide 1-6) gave an Intrinsic activity of 64%. In addition, the values for the Activity in the assay listed under Rattus norvegicus [2], in the assay listed under Rattus norvegicus [3] and in the assay listed under Rattus norvegicus [5] were under 0.05 U/mg, 0.51 U/mg and under 0.05 U/mg, respectively. Besides, the pA2 in assay [4] stood at 7.44. In addition, the outcome in assay [6] was inactive.
